The values that follow come from patent US10000521B2 (priority 2013, dated 2018).

Where only a bound is given, the exact number is not on record here.

The test system of one data set is Huh7 cells. Kind of data set: TC50 MTS cell viability assay with Huh7 cells (48 h). Format: cell-based. Conditions: Homo sapiens, Huh-7. From the text:
Plating Cells: Huh7 cells (a hepatocellular carcinoma cell-line; these cells can be obtained from the Japanese Collection of Research Bioresources (JCRB), Osaka, Japan) were used to determine the TC50 for representative compounds of the present invention. Briefly, Huh7 cells were passaged when they reached about 70% confluency. The cells were counted using a hemocytometer following dilution of the cells to about 0.5×10^5 cells per mL in DMEM with 10% fetal bovine serum (FBS). The cells were plated in a clear 96-well plate (about 5,000 cells in 100 μL per well). The cells were allowed to attach for about 24 hours at 37° C.
Treating of the cells: The DMEM media without phenol red containing 2% FBS was pre-warmed to 37° C. […] Following dilution, the final DMSO concentration was about 0.5% (v/v). […] The plates were then returned to the incubator and incubated with the cells for 48 h at 37° C.
(§1) The 96-well plate with cells incubated with test compound was removed from the 37° C. incubator. The appropriate amounts of the MTS and PMS reagents were removed from the kit and mixed well. The reagents were maintained in the dark due to their light sensitivity. […] The solutions were mixed completely in the wells prior to each reading.

In another data set the test system is HCV replicon. Kind of data set: IC50 assay with HCV luciferase replicon cell-line. The data set is classed as cell-based. Conditions: Hepatitis C virus, Huh-7; Huh7 cell line containing HCV replicon with luciferase reporter, 48 h. From the text:
Plating Cells: The cells used in these assays were a liver-derived Huh7 cell line containing an HCV replicon bearing a luciferase reporter gene. The Huh7 cell-line can be obtained from various sources including the Japanese Collection of Research Bioresources (JCRB), Osaka, Japan. The Huh7 cell line containing an HCV replicon bearing a luciferase reporter gene can be prepared essentially as described by Vrolijk J M, et al. (J Virol Methods. (2003) 110(2):201-9). Cells were passaged when they reached about 70% confluency.
These 0.5 mM dilutions were then used to further serially dilute the compounds in DMEM+2% FBS+0.5% DMSO to keep the concentration of DMSO in each condition identical.
The Glo Lysis Buffer and the Bright Glow reagent was allowed to warm to room temperature for about 30 min in the dark. […] The media was removed from cells, and the cells were gently washed with about 100 μL of phosphate buffered saline (PBS). […] It should be noted that luciferin has a half-life of approximately 30 min at room temperature after it is added to the plate. […] The data was saved and used to calculate the percent inhibition of luciferase activity at each drug concentration. […] Curve equation: (m1−m2)/(1+(x/m3)^m4); m1=100; m2=0.01; m3=0.01; m4=0.01; the equation is: […]
(A replicon is a self-replicating genome or part of one, used to study replication in cells.)

Another data set relates to Huh7. Put plainly: TC50 assay in different human cell lines (96 h), Huh7. Conditions: Huh-7, about 96 h, MTS assay. Format: cell-based. The method, then:
as §1
(§2) Plating Cells: Huh7, HEPG2, HEK293, MCF-7, or BxPC3 cells (which can be obtained from American Type Culture Collection, ATCC) were passaged when they were about 70% confluent. […] The cells following passaging were allowed to attach for about 24 hours at 37° C.
(§3) The plates were then returned to the incubator, and cells incubated for about 96 h at 37° C.
(§4) MTS Assay: Assay was carried out as described above.

The subject of another data set is RPK9 cells. Put plainly: cells. Conditions: Homo sapiens, 48 h, read-out: TC50 (μM), 48 h treatment. As to the method:
(§5) Plating Cells: PK9 or RPK9 cells were seeded in 96-well plates at a density of 2,500 cells/well or 2,500 cells/well, respectively, and the plates were incubated at 37° C. for 24 h to allow for cell attachment.
(§6) Treating with Control & Compound 1: The cells were treated with each compound at final concentrations ranging from 500 μM to 0 μM in triplicate in media containing 2% FBS and 0.5% DMSO.
(§7) The RPK9 cells are described in Saiki, T., et al. (2012) Biochim. Biophys. Res. Commun. 421, 98-104).

The next data set concerns HEPG2. Kind of data set: TC50 assay in different human cell lines (96 h), HEPG2. Format: cell-based. Conditions: about 96 h, MTS assay. As to the method:
as §1, §2, §3, §4
(Tetrazolium dyes change colour on reduction, which living cells bring about.)

The subject of another data set is MCF-7. Put plainly: TC50 assay in different human cell lines (96 h), MCF-7. Format: cell-based. Conditions: MCF7, about 96 h, MTS assay. As to the method: as §1, §2, §3, §4
A short description of data set [1]: In vivo pharmacokinetic assessment (LC-MS/MS, plasma and liver). Conditions: mice, oral, plasma and liver samples. As to the method: All pharmacokinetic studies were performed with CD-1 ICR mice (female, 4-6 week old; 20-30 gram body weight), and three mice were used at each dose level and at each time point for each compound tested. […] Tetrahydrouridine (THU) was immediately added to plasma samples at a final concentration of 25 μg/mL to prevent deamination of dFdC after collection, and the samples were subsequently flash-frozen and stored at −80° C. until analysis. Approximately 200-300 mg of each mouse liver was dissected and homogenized in 150 μL of phosphate buffered saline (PBS) containing 25 μg/mL THU, resulting in 2 mg liver/μL saline homogenate. These liver homogenates were also flash-frozen and stored at −80° C. until analysis. Equivalent amounts of blood plasma and liver tissue were also collected from untreated mice and used to prepare calibration standards and quality controls. An LC-MS/MS assay was utilized to simultaneously quantify the concentrations of compound 1, dFdC and dFdU in each of the plasma and liver samples.

The test system of data set [2] is PK9 cells. Kind of data set: TC50 assay with inhibition of ENT1, PK9 cells. The data set is classed as cell-based. Conditions: Homo sapiens, PK9, 48 h, PK9 cells (48 h). The method, then:
Plating Cells: Huh7 cells or PK9 cells were seeded in 96-well plates at a density of 5,000 cells/well or 2,500 cells/well, respectively, and the plates were incubated at 37° C. for 24 h to allow for cell attachment.
Treatment with equilibrative nucleoside transporter 1 (ENT1) Inhibitor: The media was then removed from the plates and replaced with media containing 2% FBS, 0.5% DMSO, and either 10 μM dipyramidole or 10 μM S-(4-nitrobenzyl)-6-thioinosine (NBTI).
Treating with Control & Compound 1: After incubation with the ENT1 inhibitor, the cells were treated with each compound at final concentrations ranging from 500 μM to 0 μM in triplicate in media containing 2% FBS, 0.5% DMSO, and either 10 μM dipyridamole or 10 μM NBTI.

Data set [3] has as its system PK9 cells. Put plainly: TC50 assay, effect of deficient deoxycytidine kinase activity, PK9 cells. Conditions: Homo sapiens, 48 h, read-out: TC50 (μM), 48 h treatment. Format: cell-based. As to the method:
as §5, §6, §7

The next data set relates to BxPC3. Put plainly: TC50 assay in different human cell lines (96 h), BxPC3. Format: cell-based. Conditions: BXPC-3, about 96 h, MTS assay. As to the method:
as §1, §2, §3, §4

The nature of data set [4]: TC50 assay in different human cell lines (96 h), HEK293. Format: cell-based. Conditions: HEK293 cells, about 96 h, MTS assay. The method, then: as §1, §2, §3, §4
Data set [5] in a line: Stability test at different pH conditions (HPLC). The data set is classed as physicochemical. The method, then:
HPLC analysis: 100 μl of the incubated solution was loaded onto a Vydac C18 analytical column 4.6/250, and the mobile phase run at 1 mL/min water with the following procedures: a. Inject 100 μl the incubated solution; b. Water for 5 minutes at 1 ml/min; c. 0-100% acetonitrile over 30 minutes; d. Back to 100% water.
Analysis: Standard HPLC analysis software was used to quantitate the area under each peak. Degradation peaks were quantitated as a percentage of the peak of the same amount of control sample (no heat treatment).

For the molecule `O=C(Nc1ccn([C@@H]2O[C@H](CO)C(O)C2(F)F)c(=O)n1)c1c(Br)ccc2c1OCO2` (some centres unmarked) [Compound 6], the CC50 with Huh7 cells worked out at 2210 ± 821 µM. The same molecule registered a half-inhibitory concentration (IC50) in the data set with HCV replicon of 0.34 ± 0.045 µM.

In the data set with Huh7 cells, `CC1(C)Cc2ccc(C(=O)Nc3ccn([C@@H]4O[C@H](CO)C(O)C4(F)F)c(=O)n3)cc2O1` (some centres unmarked) [Compound 4] came in with a CC50 of 1160 ± 204 µM. In the data set with HCV replicon, this molecule registered an IC50 of 0.177 ± 0.045 µM.

Turning to `Nc1ccn([C@@H]2O[C@H](CO)[C@@H](O)C2(F)F)c(=O)n1` [Gem, 4-amino-1-((2R,4R,5R)-3,3-difluoro-4-hydroxy-5-(hydroxymethyl)tetrahydrofuran-2-yl)pyrimidin-2(1H)-one, reference compound], the CC50 is 3.41 µM in the data set on Huh7; over 500 µM in the data set with RPK9 cells; 0.311 µM in the data set on HEPG2; 0.067 µM with MCF-7; 1.92 ± 0.78 µM with PK9 cells [2] (10 μM NBTI); 193 ± 20 µM in the data set on PK9 cells [2] (10 μM dipyridamole). Also, the CC50 in the data set with PK9 cells [2] (ENT1 inhibitor: None) was found to be 0.095 ± 0.035 µM; in the data set on PK9 cells [3], 0.095 ± 0.035 µM; in the data set with BxPC3, 0.0029 µM. Moreover, in data set [1], the “first-pass metabolism to inactive metabolite dFdU” value is “extensive first-pass metabolism”. In the data set on HCV replicon, this molecule came in with a half-maximal inhibitory concentration (IC50) of 0.058 ± 0.006 µM.

On to `O=C(Nc1ccn([C@@H]2O[C@H](CO)C(O)C2(F)F)c(=O)n1)c1ccc2c(c1)OCCCO2` (some centres unmarked) [Compound 3], for which, in the data set with Huh7 cells, the CC50 was 881 ± 287 µM. Half-maximal inhibition with HCV replicon (IC50) required 0.092 ± 0.008 µM.

In turn, `O=C(Nc1ccn(C2O[C@H](CO)[C@@H](O)C2(F)F)c(=O)n1)c1cc2c(cc1[N+](=O)[O-])OCO2` (stereo in doubt) [Compound 9] displayed a CC50 with Huh7 cells of over 500 µM. 0.047 ± 0.004 µM corresponded to half-maximal inhibition in the data set with HCV replicon (IC50).

In turn, `Cc1cc2c(cc1C(=O)Nc1ccn([C@@H]3O[C@H](CO)C(O)C3(F)F)c(=O)n1)OCCO2` (some centres unmarked) [Compound 8] gave a CC50 with Huh7 cells of 626 ± 191 µM. The same molecule gave a half-maximal inhibitory concentration (IC50) with HCV replicon of 1.69 ± 1.06 µM.

Turning to `O=C(Nc1ccn([C@@H]2O[C@H](CO)C(O)C2(F)F)c(=O)n1)c1ccc2c(c1)OC(F)(F)O2` (some centres unmarked) [Compound 7], the CC50 in the data set with Huh7 cells came to 188 ± 50 µM. For the same molecule, the midpoint of inhibition in the data set on HCV replicon, the IC50, lay at 0.046 ± 0.027 µM.

`O=C(Nc1ccn([C@@H]2O[C@H](CO)C(O)C2(F)F)c(=O)n1)c1ccc2c(c1)CCO2` (some centres unmarked) [Compound 5] displayed a CC50 with Huh7 cells of 954 ± 247 µM. The molecule also yielded an IC50 in the data set with HCV replicon of 0.145 ± 0.017 µM.

In the case of `O=C(Nc1ccn(C2O[C@H](CO)[C@@H](O)C2(F)F)c(=O)n1)c1ccc2c(c1)OCCO2` (stereo partly drawn) [Compound 2, N-(1-((4R,5R)-3,3-difluoro-4-hydroxy-5-(hydroxymethyl)tetrahydrofuran-2-yl)-2-oxo-1,2-dihydropyrimidin-4-yl)-2,3-dihydrobenzo[b][1,4]dioxine-6-carboxamide], the CC50 is 3.34 µM in the data set on Huh7; 1.13 µM in the data set on HEPG2; 1.44 µM with MCF-7; 855 ± 166 µM with Huh7 cells; 1.15 µM with BxPC3. In [4], the CC50 at 96 h is 5.61 µM. For the same molecule, the 50% inhibitory concentration (IC50) in the data set with HCV replicon was 0.127 ± 0.009 µM. For the same molecule, the “Compound remaining (%)” value was found to be 100% in data set [5] (Pretreatment); 71% in data set [5] (pH 1, 40° C., 4 h); 100% in [5] (pH 2, 40° C., 4 h); 100% in data set [5] (pH 4, 40° C., 4 h); 100% in data set [5] (pH 6, 40° C., 4 h); 100% in data set [5] (pH 8, 40° C., 4 h).

The term IC50 denotes the concentration needed to halve the response being measured. Lower therefore signals greater potency.
